Experimental findings from patent US8148373B2, “Compounds” (AstraZeneca AB, priority 2008, dated 2012) are described below.

By inhibition is commonly meant the relative decrease from the control value, in per cent. The low end stands for a weak effect, the high end for a strong effect.

Assay [1] concerns the target T1, Adrenergic β2 (H292 cells) (Homo sapiens, UniProt P07550).
T1 construct: endogenous in cells; host or cells: H292 cells
Kind of assay: Adrenergic β2 Mediated cAMP Production, single concentration 1 μM. The class given is cell-based. The conditions noted are these: percentage of the maximum response generated by 1E-07M formoterol; for activation at 1 µM: NCI-H292, 1 μM compound, read-out: β2 (% effect at 1 μM); for β2 (% effect at 1 μM): 1 μM compound. In short, it runs like this: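 cAMP was quantified by AlphaScreen in lysates of H292 cells and reported as a percentage of the 1E-07M formoterol maximum. Before lysis the cells, seeded the previous day, received rolipram (300 μM final) and then test compound at a final 1 μM in 1% DMSO for 60 min at room temperature.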

Assay [2] deals with T2, human muscarinic acetylcholine M3 receptor (M3-ACh) (Homo sapiens, UniProt P20309).
T2 construct: expressed in transfected cells; host or cells: CHO-K1 (Chinese Hamster Ovary) cell membranes
T2 sequence (P20309 whole entry): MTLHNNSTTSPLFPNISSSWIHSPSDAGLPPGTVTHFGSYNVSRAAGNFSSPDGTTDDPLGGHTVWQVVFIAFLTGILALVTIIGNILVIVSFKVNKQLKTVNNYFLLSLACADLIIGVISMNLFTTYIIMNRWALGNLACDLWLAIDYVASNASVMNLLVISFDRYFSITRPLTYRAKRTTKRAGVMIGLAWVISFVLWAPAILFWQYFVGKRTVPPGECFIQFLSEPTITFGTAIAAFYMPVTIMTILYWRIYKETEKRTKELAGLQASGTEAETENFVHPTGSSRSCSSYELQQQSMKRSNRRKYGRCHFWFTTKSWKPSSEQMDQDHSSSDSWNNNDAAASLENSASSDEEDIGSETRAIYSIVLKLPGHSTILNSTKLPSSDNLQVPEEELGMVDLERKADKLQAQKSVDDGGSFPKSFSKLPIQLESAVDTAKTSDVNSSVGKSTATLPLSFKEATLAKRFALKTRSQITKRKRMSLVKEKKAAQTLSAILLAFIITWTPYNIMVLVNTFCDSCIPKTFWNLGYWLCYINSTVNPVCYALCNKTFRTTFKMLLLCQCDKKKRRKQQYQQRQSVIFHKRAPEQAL
Kind of assay: Muscarinic 3 Receptor Binding Assay, % inhibition specific binding at 1 μM. The conditions noted are these: 1 μM compound, % inhibition specific [3H]-NMS binding. In short, it runs like this: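 Value is % inhibition of specific [3H]N-methyl scopolamine binding (0.1 nM, quarter Kd) by 1 μM compound, using SPA beads precoated with human M3-expressing CHO-K1 membranes. Buffer HEPES pH 7.4 with MgCl2 and 1% DMSO; 16 h at room temperature; 1 μM atropine sets non-specific binding.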

T1 sequence (P07550 whole entry): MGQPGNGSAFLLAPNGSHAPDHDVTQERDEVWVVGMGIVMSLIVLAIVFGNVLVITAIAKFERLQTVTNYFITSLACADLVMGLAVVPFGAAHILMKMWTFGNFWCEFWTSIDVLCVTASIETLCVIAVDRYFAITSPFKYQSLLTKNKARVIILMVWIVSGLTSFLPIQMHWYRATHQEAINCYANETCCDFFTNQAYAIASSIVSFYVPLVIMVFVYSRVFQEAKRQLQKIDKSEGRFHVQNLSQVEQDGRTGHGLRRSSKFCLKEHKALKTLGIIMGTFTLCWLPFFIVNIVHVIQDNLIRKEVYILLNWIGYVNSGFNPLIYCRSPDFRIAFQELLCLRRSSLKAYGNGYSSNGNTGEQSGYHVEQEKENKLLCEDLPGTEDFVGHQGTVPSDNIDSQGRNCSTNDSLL

In the case of `O=C(c1ccc2[nH]ccc2c1)N1CCOC2(CCN(Cc3cc(F)cc(CCNC[C@H](O)c4ccc(O)c5[nH]c(=O)sc45)c3)CC2)C1` [Example 138, (R)-7-(2-(3-((4-(1H-indole-5-carbonyl)-1-oxa-4,9-diazaspiro[5.5]undecan-9-yl)methyl)-5-fluorophenethylamino)-1-hydroxyethyl)-4-hydroxybenzo[d]thiazol-2(3H)-one], the activation at 1 µM in assay [1] came to 92%. In assay [2], this compound showed an inhibition at 1 µM of 27%.
For `O=C(c1c[nH]c2ccccc12)N1CCOC2(CCN(Cc3cc(F)cc(CCNC[C@H](O)c4ccc(O)c5[nH]c(=O)sc45)c3)CC2)C1` [Example 137, (R)-7-(2-(3-((4-(1H-indole-3-carbonyl)-1-oxa-4,9-diazaspiro[5.5]undecan-9-yl)methyl)-5-fluorophenethylamino)-1-hydroxyethyl)-4-hydroxybenzo[d]thiazol-2(3H)-one], in assay [1], the activation at 1 µM came to 112%. This compound had an inhibition at 1 µM in assay [2] of 13%.
Turning to `Cc1nc(CC(=O)N2CCOC3(CCN(CCOc4ccc(CNC[C@H](O)c5ccc(O)c6[nH]c(=O)sc56)cc4)CC3)C2)cs1` [Example 251, (R)-4-hydroxy-7-(1-hydroxy-2-(4-(2-(4-(2-(2-methylthiazol-4-yl)acetyl)-1-oxa-4,9-diazaspiro[5.5]undecan-9-yl)ethoxy)benzylamino)ethyl) benzo[d]thiazol-2(3H)-one], the activation at 1 µM in assay [1] amounted to 68%. In assay [2], this compound gave an inhibition at 1 µM of 51%.
For `Cn1cccc1C(=O)N1CCOC2(CCN(CCOc3ccc(CNC[C@H](O)c4ccc(O)c5[nH]c(=O)sc45)cc3)CC2)C1` [Example 225, (R)-4-hydroxy-7-(1-hydroxy-2-(4-(2-(4-(1-methyl-1H-pyrrole-2-carbonyl)-1-oxa-4,9-diazaspiro[5.5]undecan-9-yl)ethoxy)benzylamino)ethyl) benzo[d]thiazol-2(3H)-one] the same measures were 74% and 60%.
`O=C(Cc1ccccc1)N1CCOC2(CCN(CCOc3ccc(CNC[C@H](O)c4ccc(O)c5[nH]c(=O)sc45)cc3)CC2)C1` [Example 227, (R)-4-hydroxy-7-(1-hydroxy-2-(4-(2-(4-(2-phenylacetyl)-1-oxa-4,9-diazaspiro[5.5]undecan-9-yl)ethoxy)benzylamino)ethyl) benzo[d]thiazol-2(3H)-one]: the activation at 1 µM in assay [1] worked out at 80%. This compound also yielded an inhibition at 1 µM in assay [2] of 48%.
Regarding `O=C(c1ccc(-n2ccnc2)cc1)N1CCOC2(CCN(Cc3cc(F)cc(CCNC[C@H](O)c4ccc(O)c5[nH]c(=O)sc45)c3)CC2)C1` [Example 156, (R)-7-(2-(3-((4-(4-(1H-imidazol-1-yl)benzoyl)-1-oxa-4,9-diazaspiro[5.5]undecan-9-yl)methyl)-5-fluorophenethylamino)-1-hydroxyethyl)-4-hydroxybenzo[d]thiazol-2(3H)-one], the activation at 1 µM in assay [1] turned out to be 106%. Moreover, testing at 1 µM in assay [2] gave an inhibition of 3%.
The matching figures for `O=C(c1cnc(-c2ccccc2)[nH]1)N1CCOC2(CCN(Cc3cc(F)cc(CCNC[C@H](O)c4ccc(O)c5[nH]c(=O)sc45)c3)CC2)C1` [Example 175, (R)-7-(2-(3-fluoro-5-((4-(2-phenyl-1H-imidazole-5-carbonyl)-1-oxa-4,9-diazaspiro[5.5]undecan-9-yl)methyl)phenethylamino)-1-hydroxyethyl)-4-hydroxybenzo[d]thiazol-2(3H)-one]: 94% and 3%.
Turning to `O=C(c1[nH]nc2c1CCCC2)N1CCOC2(CCN(Cc3cc(F)cc(CCNC[C@H](O)c4ccc(O)c5[nH]c(=O)sc45)c3)CC2)C1` [Example 146, (R)-7-(2-(3-fluoro-5-((4-(4,5,6,7-tetrahydro-2H-indazole-3-carbonyl)-1-oxa-4,9-diazaspiro[5.5]undecan-9-yl)methyl)phenethylamino)-1-hydroxyethyl)-4-hydroxybenzo[d]thiazol-2(3H)-one], the activation at 1 µM in assay [1] came to 96%. This compound came in with an inhibition at 1 µM in assay [2] of 41%.
Regarding `O=C(Cc1noc2ccccc12)N1CCOC2(CCN(Cc3cc(F)cc(CCNC[C@H](O)c4ccc(O)c5[nH]c(=O)sc45)c3)CC2)C1` [Example 144, (R)-7-(2-(3-((4-(2-(benzo[d]isoxazol-3-yl)acetyl)-1-oxa-4,9-diazaspiro[5.5]undecan-9-yl)methyl)-5-fluorophenethylamino)-1-hydroxyethyl)-4-hydroxybenzo[d]thiazol-2(3H)-one], the activation at 1 µM in assay [1] was determined as 101%. Moreover, in assay [2], the inhibition at 1 µM is 35%.
For `O=C(c1csc(C2CCC2)n1)N1CCOC2(CCN(CCOc3ccc(CNC[C@H](O)c4ccc(O)c5[nH]c(=O)sc45)cc3)CC2)C1` [Example 261, (R)-7-(2-(4-(2-(4-(2-cyclobutylthiazole-4-carbonyl)-1-oxa-4,9-diazaspiro[5.5]undecan-9-yl)ethoxy)benzylamino)-1-hydroxyethyl)-4-hydroxy-benzo[d]thiazol-2(3H)-one], in assay [1], the activation at 1 µM came out at 70%. The compound also registered an inhibition at 1 µM in assay [2] of 90%.
For `CC(C)c1cc(C(=O)N2CCOC3(CCN(Cc4cc(F)cc(CCNC[C@H](O)c5ccc(O)c6[nH]c(=O)sc56)c4)CC3)C2)no1` [Example 179, (R)-7-(2-(3-fluoro-5-((4-(5-isopropylisoxazole-3-carbonyl)-1-oxa-4,9-diazaspiro[5.5]undecan-9-yl)methyl)phenethylamino)-1-hydroxyethyl)-4-hydroxybenzo[d]thiazol-2(3H)-one] the same measures were 95% and 66%.
In the case of `O=C(c1csc(C(F)(F)F)n1)N1CCOC2(CCN(CCOc3ccc(CNC[C@H](O)c4ccc(O)c5[nH]c(=O)sc45)cc3)CC2)C1` [Example 258], the “β2 (% effect at 1 μM)” value in assay [1] stood at 55%. The “M3 (% inhibition at 1 μM)” value in assay [2] amounted to 96%.
Regarding `O=C(c1ccc(-c2ccccc2)cc1)N1CCOC2(CCN(Cc3cc(F)cc(CCNC[C@H](O)c4ccc(O)c5[nH]c(=O)sc45)c3)CC2)C1` [Example 145, (R)-7-(2-(3-((4-(biphenylcarbonyl)-1-oxa-4,9-diazaspiro[5.5]undecan-9-yl)methyl)-5-fluorophenethylamino)-1-hydroxyethyl)-4-hydroxybenzo[d]thiazol-2(3H)-one], the “β2 (% effect at 1 μM)” value in assay [1] is reported as 53%. Besides, the “M3 (% inhibition at 1 μM)” value in assay [2] (1 µM) is recorded as 7%.
With `O=C(Cc1ccccc1)N1CCOC2(CCN(CCCCCCCCCNC[C@H](O)c3ccc(O)c4[nH]c(=O)sc34)CC2)C1` [Example 186, (R)-4-hydroxy-7-(1-hydroxy-2-(9-(4-(2-phenylacetyl)-1-oxa-4,9-diazaspiro[5.5]undecan-9-yl)nonylamino)ethyl)benzo[d]thiazol-2(3H)-one], in assay [1], the activation at 1 µM turned out to be 86%. In assay [2], this compound gave an inhibition at 1 µM of 95%.
For `O=C(CCCc1ccccc1)N1CCOC2(CCN(CCOc3ccc(CNC[C@H](O)c4ccc(O)c5[nH]c(=O)sc45)cc3)CC2)C1` [Example 229, (R)-4-hydroxy-7-(1-hydroxy-2-(4-(2-(4-(4-phenylbutanoyl)-1-oxa-4,9-diazaspiro[5.5]undecan-9-yl)ethoxy)benzylamino)ethyl) benzo[d]thiazol-2(3H)-one] the same measures were 83% and 67%.
With `Cc1nonc1C(=O)N1CCOC2(CCN(Cc3cc(F)cc(CCNC[C@H](O)c4ccc(O)c5[nH]c(=O)sc45)c3)CC2)C1` [Example 151, (R)-7-(2-(3-fluoro-5-((4-(4-methyl-1,2,5-oxadiazole-3-carbonyl)-1-oxa-4,9-diazaspiro[5.5]undecan-9-yl)methyl)phenethylamino)-1-hydroxyethyl)-4-hydroxybenzo[d]thiazol-2(3H)-one], the activation at 1 µM in assay [1] amounted to 98%. Further, in assay [2], at 1 µM the inhibition was 71%.
The matching figures for `Cc1nc(CC(=O)N2CCOC3(CCN(Cc4cc(F)cc(CCNC[C@H](O)c5ccc(O)c6[nH]c(=O)sc56)c4)CC3)C2)cs1` [Example 166, (R)-7-(2-(3-fluoro-5-((4-(2-(2-methylthiazol-4-yl)acetyl)-1-oxa-4,9-diazaspiro[5.5]undecan-9-yl)methyl)phenethylamino)-1-hydroxyethyl)-4-hydroxybenzo[d]thiazol-2(3H)-one]: 95% and 69%.
The matching figures for `Cc1nc2cc(C(=O)N3CCOC4(CCN(CCOc5ccc(CNC[C@H](O)c6ccc(O)c7[nH]c(=O)sc67)cc5)CC4)C3)ccc2s1` [Example 256, (R)-4-hydroxy-7-(1-hydroxy-2-(4-(2-(4-(2-methylbenzo[d]thiazole-5-carbonyl)-1-oxa-4,9-diazaspiro[5.5]undecan-9-yl)ethoxy)benzylamino)ethyl) benzo[d]thiazol-2(3H)-one]: 76% and 38%.
`O=C(Cc1ccsc1)N1CCOC2(CCN(Cc3cc(F)cc(CCNC[C@H](O)c4ccc(O)c5[nH]c(=O)sc45)c3)CC2)C1` [Example 126, (R)-7-(2-(3-fluoro-5-((4-(2-(thiophen-3-yl)acetyl)-1-oxa-4,9-diazaspiro[5.5]undecan-9-yl)methyl)phenethylamino)-1-hydroxyethyl)-4-hydroxybenzo[d]thiazol-2(3H)-one]: in assay [1], the activation at 1 µM was determined as 98%. In assay [2], this compound came in with an inhibition at 1 µM of 50%.
